Where two headings read alike, the source gives them in different places.

What is called IC50 is the midpoint of a concentration-inhibition curve. As a reminder, the EC50 is the concentration at which the effect is half-maximal.

The target of assay [1] is T1, NS3/NS4A-2 (full-length HCV NS3 protease complexed with NS4A-2) (Hepatitis C virus genotype 1a, UniProt P27958).
T1 construct: Recombinant E. coli or Baculovirus full-length NS3; host or cells: E. coli or baculovirus (insect cells)
Nature of the assay: NS3 inhibition assay (NS3-NS4 protease assay). Format: biochemical. The method in brief: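 Full-length NS3 (E. coli-expressed at 2 nM or baculovirus-expressed at 3 nM) precomplexed with excess NS4A-2 peptide and preincubated with compound (top concentration 50 μM) for 10 min at room temperature. RETS1 substrate added; fluorescence read kinetically for 30 min (ex 335/em 495 nm). IC50 converted to Ki using Km 2.03 μM (E. coli) or 1.74 μM (baculovirus).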

The test system of assay [2] is HCV sub-genomic replicon (1377/NS3-3') in HuH-7 hepatoma cells (GS4.3). Nature of the assay: Quantitation by ELISA of NPTII in the HCV sub-genomic replicon, GS4.3. The format is cell-based, hepatitis C virus (HCV). To be noted: GS4.3 cells, 72 h incubation, NPTII ELISA, read-out: Replicon EC50. The method in brief:
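GS4.3 cells (HuH-7 carrying HCV 1377/NS3-3′ replicon) treated 72 h at 37 °C with compound at 3-fold dilutions from 10 μM to 56 pM final, 1% DMSO, without G418. NPTII in lysates quantified by ELISA (450 nm). Signal expressed as percent of DMSO control; EC50 by 4-parameter fit.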
On the technique in general: ELISA stands for enzyme-linked immunosorbent assay.

[3] abbreviates: recombinant full-length NS3/NS4A-2, RETS1 substrate, kinetic fluorescence read, read-out: NS3-NS4 IC50.

T1 sequence (P27958 1027-1657, one chain of several): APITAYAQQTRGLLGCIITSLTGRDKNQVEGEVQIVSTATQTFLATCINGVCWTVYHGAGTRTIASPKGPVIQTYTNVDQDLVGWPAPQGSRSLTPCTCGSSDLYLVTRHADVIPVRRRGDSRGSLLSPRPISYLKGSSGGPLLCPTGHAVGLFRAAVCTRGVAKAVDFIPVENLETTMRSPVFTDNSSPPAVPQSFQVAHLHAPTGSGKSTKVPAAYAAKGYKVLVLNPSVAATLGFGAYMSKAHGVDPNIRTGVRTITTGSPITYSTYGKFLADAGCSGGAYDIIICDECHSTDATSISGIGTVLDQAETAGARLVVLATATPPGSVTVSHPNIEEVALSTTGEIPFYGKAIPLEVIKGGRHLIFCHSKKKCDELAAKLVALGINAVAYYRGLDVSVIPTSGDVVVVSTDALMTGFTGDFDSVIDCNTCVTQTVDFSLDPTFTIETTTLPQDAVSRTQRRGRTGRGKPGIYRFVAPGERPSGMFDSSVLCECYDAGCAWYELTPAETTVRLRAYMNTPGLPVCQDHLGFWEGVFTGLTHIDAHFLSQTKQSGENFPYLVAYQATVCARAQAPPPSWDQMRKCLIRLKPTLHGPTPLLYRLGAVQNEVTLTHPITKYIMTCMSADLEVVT

Take `CC(C)(C)[C@H](Nc1cccc(C(F)(F)F)c1)C(=O)N1C[C@H](OC(=O)N2Cc3cccc(Cl)c3C2)C[C@H]1C(=O)N[C@]1(C(=O)NS(=O)(=O)C2CC2)C[C@H]1C1CC1` [Compound 60, [(3R,5S)-5-((1R,2S)-1-(cyclopropylsulfonylcarbamoyl)-2-cyclopropylcyclopropylcarbamoyl)-1-((S)-3,3-dimethyl-2-(3-(trifluoromethyl)phenylamino)-butanoyl)pyrrolidin-3-yl]4-chloroisoindoline-2-carboxylate]: the IC50 in assay [1] (setting [3]) is under 100 nM. Further, the EC50 in assay [2] (Hepatitis C virus, Huh-7) was under 100 nM.

Consider `C=C[C@@H]1C[C@]1(NC(=O)[C@@H]1C[C@@H](OC(=O)N2Cc3cccc(F)c3C2)CN1C(=O)[C@@H](Nc1cccc(C(F)(F)F)c1)C(C)C)C(=O)NS(=O)(=O)C1CC1` [Compound 42, [(3R,5S)-5-((1R,2S)-1-(cyclopropylsulfonylcarbamoyl)-2-vinylcyclopropylcarbamoyl)-1-((S)-3-methyl-2-(3-(trifluoromethyl)phenylamino)butanoyl)pyrrolidin-3-yl]4-fluoroisoindoline-2-carboxylate], for which the IC50 in assay [1] (setting [3]) is under 100 nM. In assay [2] (Hepatitis C virus, Huh-7), the EC50 is under 100 nM.

With `C=C[C@@H]1C[C@]1(NC(=O)[C@@H]1C[C@@H](OC(=O)N2Cc3cccc(F)c3C2)CN1C(=O)[C@@H](Nc1cncc(C(F)(F)F)c1)C(C)C)C(=O)NS(=O)(=O)C1CC1` [Compound 44, [(3R,5S)-5-((1R,2S)-1-(cyclopropylsulfonylcarbamoyl)-2-vinylcyclopropylcarbamoyl)-1-((S)-3-methyl-2-(5-(trifluoromethyl)pyridin-3-ylamino)butanoyl)pyrrolidin-3-yl]4-fluoroisoindoline-2-carboxylate], in assay [1] (setting [3]), the IC50 is under 100 nM. For the same compound, in assay [2] (Hepatitis C virus, Huh-7), the EC50 lay within 100 to 1000 nM.

In assay [1], `CC[C@@H]1C[C@]1(NC(=O)[C@@H]1C[C@@H](OC(=O)N2Cc3cccc(Cl)c3C2)CN1C(=O)[C@@H](Nc1cccc(C(F)(F)F)c1)C(C)(C)C)C(=O)NS(=O)(=O)C1(C)CC1` [Compound 81] yielded an IC50 of under 100 nM. The EC50 in assay [2] (Hepatitis C virus, Huh-7) was under 100 nM.

Consider `C=C[C@@H]1C[C@]1(NC(=O)[C@@H]1Cc2cc(Oc3cccc(Cl)c3)ccc2CN1C(=O)[C@@H](Nc1ccc(F)cc1)C(C)(C)C)C(=O)NS(=O)(=O)C1CC1` [Compound 11, (S)-6-(3-chlorophenoxy)-N-((1R,2S)-1-(cyclopropylsulfonylcarbamoyl)-2-vinylcyclopropyl)-2-((S)-2-(4-fluorophenylamino)-3,3-dimethylbutanoyl)-1,2,3,4-tetrahydroisoquinoline-3-carboxamide], for which the IC50 in assay [1] (setting [3]) is under 100 nM. Also, the EC50 in assay [2] (Hepatitis C virus, Huh-7) is 10000 to 50000 nM.

`CC[C@@H]1C[C@]1(NC(=O)[C@@H]1C[C@@H](OC(=O)N2Cc3cccc(F)c3C2)CN1C(=O)[C@@H](Nc1cncc(C(F)(F)F)c1)C(C)(C)C)C(=O)NS(=O)(=O)C1CC1` [Compound 57, [(3R,5S)-5-((1R,2R)-1-(cyclopropylsulfonylcarbamoyl)-2-ethylcyclopropylcarbamoyl)-1-((S)-3,3-dimethyl-2-(5-(trifluoromethyl)pyridin-3-ylamino)butanoyl)pyrrolidin-3-yl]4-fluoroisoindoline-2-carboxylate]: the IC50 in assay [1] (setting [3]) was under 100 nM. Besides, the EC50 in assay [2] (Hepatitis C virus, Huh-7) was under 100 nM.

Regarding “[(3R,5S)-5-(((1R,2R)-1-(Cyclopropylsulfonylcarbamoyl)-2-ethylcyclopropyl)carbamoyl)-1-((S)-2-(5-ethylthiazol-2-ylamino)-3,3-dimethylbutanoyl)pyrrolidin-3-yl]4-chloroisoindoline-2-carboxylate [Compound 66]”, the IC50 in assay [1] (setting [3]) is under 100 nM. The EC50 in assay [2] was under 100 nM.

Regarding `CC[C@@H]1C[C@]1(NC(=O)[C@@H]1C[C@@H](OC(=O)N2Cc3cccc(Cl)c3C2)CN1C(=O)[C@@H](Nc1cncc(C(F)(F)F)c1)C(C)(C)C)C(=O)NS(=O)(=O)C1CC1` [Compound 58, [(3R,5S)-5-((1R,2R)-1-(cyclopropylsulfonylcarbamoyl)-2-ethylcyclopropylcarbamoyl)-1-((S)-3,3-dimethyl-2-(5-(trifluoromethyl)pyridin-3-ylamino)butanoyl)pyrrolidin-3-yl]4-chloroisoindoline-2-carboxylate], in assay [1] (setting [3]), the IC50 is under 100 nM. In addition, the EC50 in assay [2] (Hepatitis C virus, Huh-7) is under 100 nM.

As for `CC(C)[C@H](Nc1cccc(C(C)(C)C)c1)C(=O)N1C[C@H](OC(=O)N2Cc3cccc(Cl)c3C2)C[C@H]1C(=O)N[C@]1(C(=O)NS(=O)(=O)C2CC2)C[C@H]1C1CC1` [Compound 59, [(3R,5S)-1-((S)-2-(3-tert-butylphenylamino)-3-methylbutanoyl)-5-((1R,2S)-1-(cyclopropylsulfonylcarbamoyl)-2-cyclopropylcyclopropylcarbamoyl)pyrrolidin-3-yl]4-chloroisoindoline-2-carboxylate], the IC50 in assay [1] (setting [3]) is under 100 nM. The concentration for a half-maximal effect (EC50) in assay [2] (Hepatitis C virus, Huh-7) was under 100 nM.

On to `CC[C@@H]1C[C@]1(NC(=O)[C@@H]1C[C@@H](OC(=O)N2Cc3cccc(F)c3C2)CN1C(=O)[C@@H](Nc1cccc(C(F)(F)F)c1)C(C)C)C(=O)NS(=O)(=O)C1CC1` [Compound 47, [(3R,5S)-5-((1R,2R)-1-(cyclopropylsulfonylcarbamoyl)-2-ethylcyclopropylcarbamoyl)-1-((S)-3-methyl-2-(3-(trifluoromethyl)phenylamino)butanoyl)pyrrolidin-3-yl]4-fluoroisoindoline-2-carboxylate], for which, in assay [1] (setting [3]), the IC50 is under 100 nM. Further, in assay [2] (Hepatitis C virus, Huh-7), the EC50 is under 100 nM.

`C=C[C@@H]1C[C@]1(NC(=O)[C@H]1Cc2cc(Oc3cccc(Cl)c3)ccc2CN1C(=O)[C@@H](Nc1ccc(F)cc1)C(C)(C)C)C(=O)NS(=O)(=O)C1CC1` [Compound 12, (R)-6-(3-chlorophenoxy)-N-((1R,2S)-1-(cyclopropylsulfonylcarbamoyl)-2-vinylcyclopropyl)-2-((S)-2-(4-fluorophenylamino)-3,3-dimethylbutanoyl)-1,2,3,4-tetrahydroisoquinoline-3-carboxamide]: the IC50 in assay [1] (setting [3]) fell in the range of 100 to 1000 nM. For the same compound, the EC50 in assay [2] (Hepatitis C virus, Huh-7) lay within 10000 to 50000 nM.

Take `C=C[C@@H]1C[C@]1(NC(=O)[C@@H]1C[C@@H](OC(=O)N2Cc3cccc(F)c3C2)CN1C(=O)[C@@H](Nc1ccc(Br)cc1)C(C)C)C(=O)NS(=O)(=O)C1CC1` [Compound 36, [(3R,5S)-5-((1R,2S)-1-(cyclopropylsulfonylcarbamoyl)-2-vinylcyclopropylcarbamoyl)-1-((S)-2-(4-bromophenylamino)-3-methylbutanoyl)pyrrolidin-3-yl]4-fluoroisoindoline-2-carboxylate]: the IC50 in assay [1] (setting [3]) was under 100 nM. Besides, in assay [2] (Hepatitis C virus, Huh-7), the EC50 was in the range of 100 to 1000 nM.

As for `C=C[C@@H]1C[C@]1(NC(=O)[C@@H]1C[C@@H](OC(=O)N2Cc3cccc(Cl)c3C2)CN1C(=O)[C@@H](Nc1nc(C(F)(F)F)cs1)C1CCCCC1)C(=O)NS(=O)(=O)C1CC1` [Compound 63, [(3R,5S)-5-(((1R,2S)-1-(Cyclopropylsulfonylcarbamoyl)-2-vinylcyclopropyl)carbamoyl)-1-((S)-2-cyclohexyl-2-(4-(trifluoromethyl)thiazol-2-ylamino)acetyl)pyrrolidin-3-yl]4-chloroisoindoline-2-carboxylate], in assay [1] (setting [3]), the IC50 was under 100 nM. In assay [2] (Hepatitis C virus, Huh-7), the concentration giving a half-maximal response (EC50) is under 100 nM.

`CC[C@@H]1C[C@]1(NC(=O)[C@@H]1C[C@@H](OC(=O)N2Cc3cccc(Cl)c3C2)CN1C(=O)[C@@H](Nc1cccc(Oc2ccccc2)c1)C(C)(C)C)C(=O)NS(=O)(=O)C1CC1` [Compound 76]: the IC50 in assay [1] (setting [3]) is under 100 nM. In assay [2] (Hepatitis C virus, Huh-7), the EC50 is under 100 nM.

Regarding `C=C[C@@H]1C[C@]1(NC(=O)[C@@H]1C[C@@H](OC(=O)N2Cc3cccc(F)c3C2)CN1C(=O)[C@@H](Nc1ccc(F)cc1)C(C)(C)C)C(=O)NS(=O)(=O)C1CC1` [Compound 37, [(3R,5S)-5-((1R,2S)-1-(cyclopropylsulfonylcarbamoyl)-2-vinylcyclopropylcarbamoyl)-1-((S)-2-(4-fluorophenylamino)-3,3-methylbutanoyl)pyrrolidin-3-yl]4-fluoroisoindoline-2-carboxylate], the IC50 in assay [1] (setting [3]) was under 100 nM. Further, in assay [2] (Hepatitis C virus, Huh-7), the EC50 was under 100 nM.

For the compound `C=C[C@@H]1C[C@]1(NC(=O)[C@@H]1C[C@@H](OC(=O)N2Cc3cccc(Cl)c3C2)CN1C(=O)[C@@H](Nc1ccc(F)cc1)C(C)C)C(=O)NS(=O)(=O)C1CC1` [Compound 34, [(3R,5S)-5-((1R,2S)-1-(cyclopropylsulfonylcarbamoyl)-2-vinylcyclopropylcarbamoyl)-1-((S)-2-(4-fluorophenylamino)-3-methylbutanoyl)pyrrolidin-3-yl]4-chloroisoindoline-2-carboxylate], the IC50 in assay [1] (setting [3]) was under 100 nM. The EC50 in assay [2] (Hepatitis C virus, Huh-7) was under 100 nM.

On to `CC[C@@H]1C[C@]1(NC(=O)[C@@H]1C[C@@H](OC(=O)N2Cc3cccc(Cl)c3C2)CN1C(=O)[C@@H](Nc1cccc(C(C)(C)C#N)c1)C(C)C)C(=O)NS(=O)(=O)C1CC1` [Compound 54, [(3R,5S)-1-((S)-2-(3-(2-cyanopropan-2-yl)phenylamino)-3-methylbutanoyl)-5-((1R,2R)-1-(cyclopropylsulfonylcarbamoyl)-2-ethylcyclopropylcarbamoyl)-pyrrolidin-3-yl]4-chloroisoindoline-2-carboxylate], for which the 50% inhibitory concentration (IC50) in assay [1] (setting [3]) is under 100 nM. Moreover, the EC50 in assay [2] (Hepatitis C virus, Huh-7) was under 100 nM.

Consider `CC[C@@H]1C[C@]1(NC(=O)[C@@H]1C[C@@H](OC(=O)N2Cc3cccc(Cl)c3C2)CN1C(=O)[C@@H](Nc1cccc(N2CCOCC2)c1)C(C)(C)C)C(=O)NS(=O)(=O)C1CC1` [Compound 75], for which the IC50 in assay [1] (setting [3]) is under 100 nM. In assay [2] (Hepatitis C virus, Huh-7), the EC50 was under 100 nM.

The record behind these values is patent publication US7932277B2, “Peptide inhibitors of hepatitis C virus replication” (InterMune, Inc., priority 2007, dated 2011).
